Test results from US6677368B2, “4-aryl substituted indolinones” (Sugen, Inc., priority 2000, dated 2004).

Experiments:
Assay type in all cases: biochemical
[1] = biological target: T1, PDGFR (UniProt P09619); assay: PDGFR bioassay (ELISA, in vitro kinase activity); conditions: PDGFR-β expressing NIH 3T3 cell lysate, 20 μM ATP
T1 construct: PDGFR-β expressing NIH 3T3 cell lysate (SUGEN, Inc.)
Protocol: This assay is used to the in vitro kinase activity of PDGFR in an ELISA assay.
1. Corning 96-well ELISA plates
2. 28D4C10 monoclonal anti-PDGFR antibody (SUGEN, Inc.).
5. Blocking Buffer (same as for EGFR bioassay).
6. PDGFR-β expressing NIH 3T3 cell lysate (SUGEN, Inc.).
11. Kinase buffer phosphorylation mix: for 10 ml, mix 250 μl 1M TRIS, 200 μl 5M NaCl, 100 μl 1M MnCl2 and 501l 100 mM Triton X-100 in enough dH2O to make 10 ml.
12. NUNC 96-well V bottom polypropylene plates.
14. Rabbit polyclonal anti-phosphotyrosine serum (SUGEN, Inc.).
15. Goat anti-rabbit IgG peroxidase conjugate (Biosource Cat. No. ALI0404).
17. Hydrogen peroxide, 30% solution.
1. Coat Corning 96 well ELISA plates with […] 28D4C 10 in 100 μl PBS per well, hold overnight at 4° C.
2. Remove unbound 28D4C10 from wells by inverting plate to remove liquid. Wash 1× with dH2O. Pat the plate on a paper towel to remove excess liquid.
3. Add 150 μl of Blocking Buffer to each well. Incubate for 30 min. at room temperature with shaking.
4. Wash plate 3× with deionized water, then once with TBST. Pat plate on a paper towel to remove excess liquid and bubbles.
5. Dilute lysate in HNTG (10 μg lysate/100 μl HNTG).
6. Add 100 μl of diluted lysate to each well. Shake at room temperature for 60 min.
7. Wash plates as described in Step 4.
8. Add 80 μl working kinase buffer mix to ELISA plate containing captured PDGFR.
9. Dilute test compound 1:10 in TBS in 96-well polypropylene plates.
10. Add 10 μl diluted test compound to -ELISA plate. To control wells, add 10 μl TBS+10% DMSO. Incubate with shaking for 30 minutes at room temperature.
11. Add 10 μl ATP directly to all wells except negative control well (final well volume should be approximately 100 μl with 20 μM ATP in each well.) Incubate 30 minutes with shaking.
12. Stop reaction by adding 10 μl of EDTA solution to each well.
13. Wash 4× with deionized water, twice with TBST.
14. Add 100 μl anti-phosphotyrosine (1:3000 dilution in TBST) per well.
Incubate with shaking for 30-45 min. at room temperature.
16. Add 100 μl Biosource Goat anti-rabbit IgG peroxidase conjugate (1:2000 dilution in TBST) to each well. Incubate with shaking for 30 min. at room temperature.
18. Add 100 μl of ABTS/H2O2 solution to each well.
19. Incubate 10 to 30 minutes with shaking. Remove any bubbles.
20. If necessary stop reaction with the addition of 100 μl 0.2 M HCl per well.
21. Read assay on Dynatech MR7000 ELISA reader with test filter at 410 nM and reference filter at 630 nM.

[2] = biological target: T2, SRC (Homo sapiens, UniProt P12931); assay: Src transphosphorylation assay; conditions: recombinant human Src, poly(Glu-Tyr) substrate
T2 construct: purchased UBI 14-117
Protocol: Src Transphosphorylation Assay
This assay is used to screen for inhibitors of the tyrosine kinase Src.
1. Coating buffer: PBS containing sodium azide (0.2 mg/ml).
3. Wash buffer: PBS containing 0.05% v/v Tween 20 (PBS-TWEEN)
5. ATP (40 [M)+MgCl2 (80 mM) in distilled water.
6. MgCl2 (80 mM) in distilled water (for no ATP blanks).
7. Test compounds, 10 mM in DMSO.
8. Assay Buffer: 100 mM HEPES, pH 7.4, containing 2 mM DTT, 0.2 mM sodium orthovanadate and 0.2 mgs/ml BSA.
9. Partially purified recombinant human Src (UBI (14-117)
10. Anti-phosphotyrosine (SUGEN rabbit polyclonal anti-PY).
11. HRP-linked goat anti-rabbit Ig (Biosource International #6430)
12. HRP substrate ABTS or Pierce Peroxidase substrate.
13. Corning ELISA plates.
1. Coat plates with 100 μl of 20 μg/ml poly(Glu-Tyr) (Sigma Cat. No.P0275) containing 0.01% sodium azide. Hold overnight at 4° C.
2. Block with 1% BSA at 100 μl/well for one hour at room temperature.
3. Plate test compounds (10 mM in DMSO) at 2 ul/well on a Costar plate ready for dilution with dH2O and plating to reaction plates.
4. Dilute Src kinase 1:10,000 in Reaction Buffer, for 5 plates prepare 25 ml as follows: 2.5 mls 1M HEPES pH7.4 (stored sterile at 4° C.), 21.85 ml distilled water, 0.1 ml 5% BSA, 0.5 ml 10 mM sodium orthovanadate (stored sterile at 4° C.), 50 μl 1.0M DTT (stored frozen at […]), and 2.5 μl Src Kinase (stored frozen at −80° C.).
5. Add 48 μl of distilled water to the 2 ∥l of each compound in the dilution plate then add 25 μl/well of this to the reaction plate.
6. Add 50 μl of […] to each reaction buffer well and then 25 μl ATP-MgCl2/well (MgCl2 only to no ATP blanks). Incubate at room temperature for 15 minutes on plate shaker. Stop reaction by adding 25 μl of 0.5M EDTA to each well.
7. Wash 4× with PBS-TWEEN.
8. […] Incubate with continuous shaking at room temperature for one hour.
9. Wash plates 4× with PBS-TWEEN.
10. Add 100 μl HPP-linked Ig (1:5,000) in PBS-TWEEN containing 0.5% BSA, 0.025% Non-fat milk powder, 100 μM sodium orthovanadate. Incubate with shaking at room temperature for one hour.
11. Wash plates 4× with PBS-TWEEN and then once with PBS.
12. Develop plate using ABTS or other peroxidase substrate.

[3] = biological target: P38 (Homo sapiens, UniProt Q16539); assay: P38 kinase inhibition
Sequence of P38 (Q16539 whole entry): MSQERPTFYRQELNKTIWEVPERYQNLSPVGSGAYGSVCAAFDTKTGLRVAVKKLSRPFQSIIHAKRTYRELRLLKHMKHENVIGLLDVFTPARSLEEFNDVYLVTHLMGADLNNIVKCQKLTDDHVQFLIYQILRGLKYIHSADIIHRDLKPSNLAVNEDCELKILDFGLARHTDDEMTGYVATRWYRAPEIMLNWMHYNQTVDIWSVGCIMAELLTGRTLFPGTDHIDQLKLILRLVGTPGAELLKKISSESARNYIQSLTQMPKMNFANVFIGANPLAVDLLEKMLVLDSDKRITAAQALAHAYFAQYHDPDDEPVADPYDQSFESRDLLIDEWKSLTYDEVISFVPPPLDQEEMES

T2 sequence (P12931 whole entry): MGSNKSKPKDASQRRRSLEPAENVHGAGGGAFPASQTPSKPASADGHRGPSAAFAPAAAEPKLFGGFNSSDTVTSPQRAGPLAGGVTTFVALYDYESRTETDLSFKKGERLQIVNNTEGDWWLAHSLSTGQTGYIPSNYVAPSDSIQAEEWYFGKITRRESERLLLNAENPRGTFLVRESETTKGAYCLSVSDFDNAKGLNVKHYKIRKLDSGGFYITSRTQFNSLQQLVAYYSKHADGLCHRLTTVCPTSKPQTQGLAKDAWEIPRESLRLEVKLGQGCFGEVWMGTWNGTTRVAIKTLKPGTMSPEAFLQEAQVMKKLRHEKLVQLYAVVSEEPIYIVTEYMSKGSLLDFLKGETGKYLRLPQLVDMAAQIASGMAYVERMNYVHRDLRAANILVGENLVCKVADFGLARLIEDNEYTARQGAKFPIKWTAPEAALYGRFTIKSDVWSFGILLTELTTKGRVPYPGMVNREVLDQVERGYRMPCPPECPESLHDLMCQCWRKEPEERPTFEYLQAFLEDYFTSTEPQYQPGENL

COc1ccc(-c2cccc3c2/C(=C/c2[nH]c(C)c(C(=O)N4C[C@@H](C)N[C@@H](C)C4)c2C)C(=O)N3)cc1 [Example 40, 3-[4-((cis)-3,5-Dimethyl-piperazine-1-carbonyl)-3,5-dimethyl-1H-pyrrol-2-ylmethylene]-4-(4-methoxy-phenyl)-1,3-dihydro-indol-2-one] showed an IC50 [1] of 11.1 µM, an IC50 [2] of 6.57 µM and an IC50 [3] of over 10 µM.

Work on CCN(CC)CCNC(=O)c1c[nH]c(/C=C2\C(=O)Nc3cccc(-c4ccc(Br)cc4)c32)c1C [Example 61, 5-[4-(4-Bromo-phenyl)-2-oxo-1,2-dihydro-indol-3-ylidenemethyl]-4-methyl-1H-pyrrole-3-carboxylic Acid (2-Diethylamino-ethyl)-amide] yielded an IC50 [1] of 9.12 µM, an IC50 [2] of 1.72 µM and an IC50 [3] of 6.3 µM.

Molecule CCOC(=O)c1c(C)[nH]c(/C=C2\C(=O)Nc3cccc(-c4cccc(F)c4)c32)c1CCCN1CCN(C)CC1 [Example 18, 5-[4-(3-Fluoro-phenyl)-2-oxo-1,2-dihydro-indol-3-ylidenemethyl]-2-methyl-4-[3-(4-methyl-piperazin-1-yl)-propyl]-1H-pyrrole-3-carboxylic Acid Ethyl Ester] has an IC50 [1] of 10.4 µM, an IC50 [2] of 7.81 µM and an IC50 [3] of 9.5 µM.

CCN(CC)CCNC(=O)c1c(C)[nH]c(/C=C2\C(=O)Nc3cccc(-c4cccc(F)c4)c32)c1C [Example 13, 5-[4-(3-Fluoro-phenyl)-2-oxo-1,2-dihydro-indol-3-ylidenemethyl]-2,4-dimethyl-1H-pyrrole-3-carboxylic Acid (2-Diethylamino-ethyl)-amide] showed an IC50 [1] of 2.32 µM, an IC50 [2] of 1.05 µM and an IC50 [3] of over 10 µM.

Cc1[nH]c(/C=C2\C(=O)Nc3cccc(-c4cccc(C(F)(F)F)c4)c32)c(C)c1C(=O)N1CCN(C)CC1 [Example 104, 3-[3,5-Dimethyl-4-(4-methyl-piperazine-1-carbonyl)-H-pyrrol-2-ylmethylene]-4-(3-trifluoromethyl-phenyl)-1,3-dihydro-indol-2-one] showed an IC50 [1] of 19 µM and an IC50 [2] of 7.09 µM.

With CCN(CC)CCNC(=O)c1c(C)[nH]c(/C=C2\C(=O)Nc3cccc(-c4ccc(OC(F)(F)F)cc4)c32)c1C [Example 140, 2,4-Dimethyl-5-[2-oxo-4-(4-trifluoromethoxy-phenyl)-1,2-dihydro-indol-3-ylidenemethyl]-1H-pyrrole-3-carboxylic Acid (2-Diethylamino-ethyl)-amide] the IC50 [1] was over 20 µM and the IC50 [2] was 4.31 µM.

With Cc1[nH]c(/C=C2\C(=O)Nc3cccc(-c4ccc(Cl)cc4)c32)c(C)c1C(=O)NCCN1CCCC1 [Example 22, 5-[4-(4-Chloro-phenyl)-2-oxo-1,2-dihydro-indol-3-ylidenemethyl]-2,4-dimethyl-1H-pyrrole-3-carboxylic Acid (2-Pyrrolidin-1-yl-ethyl)-amide] the IC50 [1] was 1.64 µM, the IC50 [2] was 1.58 µM and the IC50 [3] was 13.1 µM.

Cc1cc(C(=O)N2C[C@@H](C)N[C@@H](C)C2)c(/C=C2\C(=O)Nc3cccc(-c4cccc(Cl)c4)c32)[nH]1 [Example 35, 4-(3-Chloro-phenyl)-3-[3-((cis)-3,5-dimethyl-piperazine-1-carbonyl)-5-methyl-1H-pyrrol-2-ylmethylene]-1,3-dihydro-indol-2-one] showed an IC50 [1] of 1.59 µM, an IC50 [2] of 9.72 µM and an IC50 [3] of over 10 µM.

Cc1[nH]c(/C=C2\C(=O)Nc3cccc(-c4ccc(F)cc4)c32)c(C)c1C(=O)NCCN1CCCC1 [Example 6, 5-[4-(4-Fluoro-phenyl)-2-oxo-1,2-dihydro-indol-3-ylidenemethyl]-2,4-dimethyl-1H-pyrrole-3-carboxylic Acid (2-Pyrrolidin-1-yl-ethyl)-amide] gave an IC50 [1] of 2.95 µM, an IC50 [2] of 4.93 µM and an IC50 [3] of over 10 µM.

Molecule CCN(CC)CCNC(=O)c1c(C)[nH]c(/C=C2\C(=O)Nc3cccc(-c4cccc(Br)c4)c32)c1C [Example 63, 5-[4-(3-Bromo-phenyl)-2-oxo-1,2-dihydro-indol-3-ylidenemethyl]-2,4-dimethyl-1H-pyrrole-3-carboxylic Acid (2-Diethylamino-ethyl)-amide] has an IC50 [1] of 2.18 µM and an IC50 [2] of 1.14 µM.

In the case of Cc1[nH]c(/C=C2\C(=O)Nc3cccc(-c4ccccc4F)c32)c(C)c1C(=O)N1CCN(C)CC1 [Example 93, 3-[3,5-Dimethyl-4-(4-methyl-piperazine-1-carbonyl)-1H-pyrrol-2-ylmethylene]-4-(2-fluoro-phenyl)-1,3-dihydro-indol-2-one], the IC50 [1] is reported as 3.76 µM and the IC50 [2] is reported as over 20 µM.

CCN(CC)CCNC(=O)c1c(C)[nH]c(/C=C2\C(=O)Nc3cccc(-c4cccc(OC)c4)c32)c1C [Example 46, 5-[4-(3-Methoxy-phenyl)-2-oxo-1,2-dihydro-indol-3-ylidenemethyl]-2,4-dimethyl-1H-pyrrole-3-carboxylic Acid (2-Diethylamino-ethyl)-amide] showed an IC50 [1] of 4.19 µM, an IC50 [2] of 0.66 µM and an IC50 [3] of over 10 µM.

Molecule Cc1[nH]c(/C=C2\C(=O)Nc3cccc(-c4ccc(Br)cc4)c32)c(C)c1C(=O)N1C[C@@H](C)N[C@@H](C)C1 [Example 57, 4-(4-Bromo-phenyl)-3-[4-[(cis)-3,5-dimethyl-piperazine-1-carbonyl)-3,5-dimethyl-1H-pyrrol-2-ylmethylene]-1,3-dihydro-indol-2-one] has an IC50 [1] of over 20 µM, an IC50 [2] of 4.74 µM and an IC50 [3] of over 10 µM.

In the case of Cc1cc(C(=O)NCCN2CCCC2)c(/C=C2\C(=O)Nc3cccc(-c4ccc(F)c(Cl)c4)c32)[nH]1 [Example 119, 2-[4-(3-Chloro-4-fluoro-phenyl)-2-oxo-1,2-dihydro-indol-3-ylidenemethyl]-5-methyl-1H-pyrrole-3-carboxylic Acid (2-Pyrrolidin-1-yl-ethyl)-amide], the IC50 [1] is reported as 9.87 µM and the IC50 [2] is reported as 8.61 µM.

For Cc1cc(C(=O)NCCn2ccnn2)c(/C=C2\C(=O)Nc3cccc(-c4ccccc4F)c32)[nH]1 [Example 99, 2-[4-(2-Fluoro-phenyl)-2-oxo-1,2-dihydro-indol-3-ylidenemethyl]-5-methyl-1H-pyrrole-3-carboxylic Acid (2-[1,2,3]Triazol-1-yl-ethyl)-amide], the IC50 [1] was over 20 µM and the IC50 [2] was over 20 µM.
